From ChEMBL document CHEMBL3885861, “Open TG-GATES”

Species: Rattus norvegicus
Assay: Open TG-GATES - Regimen: Single
Type: toxicity, organism-based, Sprague-Dawley
Design: regimen Single, gender Male, age 6 weeks
Conditions: in vivo, po, 0 mg/kg, route gavage, dose level Control; for APTT / Bas / Eos / Fbg / Ht / MCH / MCHC / MCV / Mono / PT / Plat / RBC / Ret / WBC: tissue Blood; for KIDNEY_L / KIDNEY_R / KIDNEY_TOTAL: tissue Kidney; for LIVER: tissue Liver; for ALP / AST / BUN / CRE / Ca / Cl / DBIL / GLC / IP / K / LDH / Na / PL / RALB / TBIL / TC / TG / TP / gamma-GTP: tissue Plasma

CC(=O)Nc1nnc(S(N)(=O)=O)s1 [ACETAZOLAMIDE]
TERMINAL_BW (3 h): 214.4 g
APTT (3 h): 22 s
Bas (3 h): 0%
Eos (3 h): 0.8%
Fbg (3 h): 309 mg/dL
Ht (3 h): 39.4%
MCH (3 h): 21.3 pg
MCHC (3 h): 32.9%
MCV (3 h): 64.8 fL
Mono (3 h): 2.4%
PT (3 h): 16.5 s
Plat (3 h): 118.6 x10_4/uL
RBC (3 h): 608.6 x10_4/ul
Ret (3 h): 8.8%
WBC (3 h): 89.5 x10_2/uL
KIDNEY_L (3 h): 0.9 g
KIDNEY_R (3 h): 0.9 g
KIDNEY_TOTAL (3 h): 1.9 g
LIVER (3 h): 9.8 g
ALP (3 h): 1586.4 IU/L
AST (3 h): 80.2 IU/L
BUN (3 h): 12 mg/dL
CRE (3 h): 0.2 mg/dL
Ca (3 h): 11.1 mg/dL
Cl (3 h): 106.4 meq/L
DBIL (3 h): 0 mg/dL
GLC (3 h): 187.4 mg/dL
IP (3 h): 8.2 mg/dL
K (3 h): 4 meq/L
LDH (3 h): 235.8 IU/L
Na (3 h): 143 meq/L
PL (3 h): 137.6 mg/dL
RALB (3 h): 3.1 g/dL
TBIL (3 h): 0.018 mg/dL
TC (3 h): 78 mg/dL
TG (3 h): 59.8 mg/dL
TP (3 h): 5.4 g/dL
gamma-GTP (3 h): 1 IU/L
TERMINAL_BW (6 h): 207.4 g
APTT (6 h): 22.1 s
Bas (6 h): 0%
Eos (6 h): 0.8%
Fbg (6 h): 320.2 mg/dL
Ht (6 h): 39.1%
MCH (6 h): 20.8 pg
MCV (6 h): 62.8 fL
Mono (6 h): 2%
PT (6 h): 16.5 s
Plat (6 h): 131.7 x10_4/uL
RBC (6 h): 622.4 x10_4/ul
Ret (6 h): 8.3%
WBC (6 h): 79.7 x10_2/uL
KIDNEY_L (6 h): 1 g
KIDNEY_R (6 h): 0.9 g
KIDNEY_TOTAL (6 h): 1.9 g
LIVER (6 h): 9 g
ALP (6 h): 1340.2 IU/L
AST (6 h): 63.4 IU/L
CRE (6 h): 0.1 mg/dL
Ca (6 h): 11 mg/dL
Cl (6 h): 105 meq/L
DBIL (6 h): 0 mg/dL
GLC (6 h): 186.6 mg/dL
IP (6 h): 9.4 mg/dL
K (6 h): 4.3 meq/L
LDH (6 h): 183.6 IU/L
Na (6 h): 141 meq/L
PL (6 h): 127.8 mg/dL
RALB (6 h): 3 g/dL
TBIL (6 h): 0.024 mg/dL
TC (6 h): 78 mg/dL
TG (6 h): 48.2 mg/dL
TP (6 h): 5.3 g/dL
gamma-GTP (6 h): 1.2 IU/L
TERMINAL_BW (9 h): 212.2 g
APTT (9 h): 21.9 s
Bas (9 h): 0%
Eos (9 h): 0.6%
Fbg (9 h): 293 mg/dL
Ht (9 h): 39.7%
MCH (9 h): 20.8 pg
MCHC (9 h): 32.3%
MCV (9 h): 64.3 fL
Mono (9 h): 2.2%
PT (9 h): 16.8 s
Plat (9 h): 115.3 x10_4/uL
RBC (9 h): 616.6 x10_4/ul
Ret (9 h): 8.4%
WBC (9 h): 84.8 x10_2/uL
KIDNEY_L (9 h): 1 g
KIDNEY_R (9 h): 1 g
KIDNEY_TOTAL (9 h): 1.9 g
LIVER (9 h): 8.8 g
ALP (9 h): 1423.8 IU/L
AST (9 h): 70.8 IU/L
BUN (9 h): 11 mg/dL
CRE (9 h): 0.1 mg/dL
Ca (9 h): 10.9 mg/dL
Cl (9 h): 104.8 meq/L
DBIL (9 h): 0 mg/dL
GLC (9 h): 193 mg/dL
IP (9 h): 9.3 mg/dL
K (9 h): 4.1 meq/L
LDH (9 h): 163.2 IU/L
Na (9 h): 141.6 meq/L
PL (9 h): 113.2 mg/dL
RALB (9 h): 3.1 g/dL
TBIL (9 h): 0.024 mg/dL
TC (9 h): 70.2 mg/dL
TG (9 h): 49.8 mg/dL
TP (9 h): 5.4 g/dL
gamma-GTP (9 h): 1.2 IU/L
TERMINAL_BW (24 h): 228.8 g
APTT (24 h): 20.3 s
Bas (24 h): 0%
Eos (24 h): 0.6%
Fbg (24 h): 288.8 mg/dL
Ht (24 h): 38.7%
MCH (24 h): 20.8 pg
MCHC (24 h): 33.2%
MCV (24 h): 62.9 fL
Mono (24 h): 1.6%
PT (24 h): 16.1 s
Plat (24 h): 110.7 x10_4/uL
RBC (24 h): 616.2 x10_4/ul
Ret (24 h): 7.9%
WBC (24 h): 66.7 x10_2/uL
KIDNEY_L (24 h): 1 g
KIDNEY_R (24 h): 1 g
KIDNEY_TOTAL (24 h): 2 g
LIVER (24 h): 10.7 g
ALP (24 h): 1945.2 IU/L
AST (24 h): 80.8 IU/L
BUN (24 h): 15.8 mg/dL
CRE (24 h): 0.1 mg/dL
Ca (24 h): 10.7 mg/dL
Cl (24 h): 105.8 meq/L
DBIL (24 h): 0 mg/dL
GLC (24 h): 201.2 mg/dL
IP (24 h): 7.7 mg/dL
K (24 h): 4.1 meq/L
LDH (24 h): 185.8 IU/L
Na (24 h): 141.6 meq/L
PL (24 h): 137.4 mg/dL
RALB (24 h): 3 g/dL
TBIL (24 h): 0.004 mg/dL
TC (24 h): 71.8 mg/dL
TG (24 h): 97 mg/dL
TP (24 h): 5.4 g/dL
